{"source": "patent US5731326A", "about": "“PDGF antagonists II” (ZymoGenetics, Inc., priority 1996, dated 1998)", "format_in_all_cases": "cell-based", "key": {"[1]": {"system": "baboon smooth muscle cells", "experiment": "Wash-out study of PDGF-BB mitogenic activity on baboon smooth muscle cells", "details": "mean +/- SD", "experimental": "NNC92-0270 was analyzed for prolonged inhibitory effect on PDGF-BB mitogenic activity on baboon smooth muscle cells in a wash-out experiment. Baboon SMCs were plated at 20,000 cells per well in a 24-well culture dish and grown for 2 days. The culture media was removed and replaced with Mito Media (Table 5) to allow the cells to become quiescent. The experiment was set up such that cells were treated with NNC92-0270 or vehicle control (0.5% DMSO) for either 24 hours prior to the addition of PDGF-BB, or sequentially with the addition of PDGF-BB. Those cells initially treated with NNC92-0270 or control vehicle for 24 hours, were washed with Mito Media to remove the test compound and then incubated with PDGF-BB (1 ng/ml) for an additional 24 hours. A second set of cells was treated with NNC92-0270 or vehicle control simultaneously with PDGF-BB for 24 hours. The cells were pulse labeled for 4 hours with [^3 H] thymidine (1 μCi/ml final) harvested with trypsin and counted in a Wallac Betaplate counter to determine CPM for [^3 H] thymidine incorporation.\nAcetic acid (10 mM) was used as the PDGF-BB vehicle control and 0.5% DMSO was used as the test compound control."}, "[2]": {"system": "PMA", "experiment": "SRE-luciferase antagonist assay, induction by PMA", "details": "Swiss-3T3, SWISS3T3 cells, 5 hours, approximate"}, "[3]": {"system": "baboon smooth muscle cells", "experiment": "Inhibition of PDGF-BB mitogenic activity on baboon smooth muscle cells ([3H] thymidine incorporation)", "details": "for 3H Thymidine (CPM Incorporated), (-) Heparin: no heparin, control 1701", "experimental": "NNC92-0270 was analyzed for the ability to inhibit the mitogenic activity of PDGF on baboon smooth muscle cells. All mitogenesis assays performed on baboon vascular smooth muscle cells (BVSMCs) were done on primary cultures of cells between passages 13 and 20 in culture. The initial cultures were established from outgrowth of aortic tissue explants. Baboon smooth muscle cells were plated at approximately 20,000 cells per well, in DMEM supplemented with 10% fetal calf serum, into 24-well culture dishes. One day prior to use the culture media was removed, and 1 ml of Mito Media (Table 5) was added to each well to allow the cells to become quiescent. At the time of the experiment the cells were stimulated with PDGF-BB. […] 20× stock solutions were made for each of the PDGF concentrations by dilution in 10 mM acetic acid containing 0.25% albumin, and 50 ul PDGF or dilution vehicle alone was added to the culture wells.\nTo analyze the activity of NNC92-0270 to neutralize PDGF-BB mitogenic activity, 1 ng/ml of PDGF was added to wells along with dilutions of NNC92-0270. The cells were incubated with the test samples for approximately 20 hours at 37 ° C. Fifty microliters of a 20× stock solution of [3H] Thymidine was then added to each well to give a final concentration of 1 μCi/ml. The cells were incubated for 4 hours at 37 ° C., washed with PBS, then harvested with trypsin and counted for [^3 H] thymidine incorporation in a Wallac (Turku, Finland) Betaplate™ liquid scintillation counter.\nNNC92-0270 was incubated with 1 ng/ml of PDGF-BB in the presence of 0.5 U/ml of unfractionated heparin. The cells were pulse labeled with [^3 H] thymidine as described above and the level of [^3 H] thymidine determined."}}, "note": "pIC50: −log10 of the molar value."}
{"compound": "O=C(NN1CCCCC1)NS(=O)(=O)c1ccc(CCNC(=O)c2[nH]c3ccccc3c2OCc2ccccc2)cc1", "note": "[NNC92-0270]", "values": [{"measurement": "[3H] Thymidine Incorporation (cpm)", "setting": "[1]; T = -24 hrs 0.5% DMSO, T = 0 hrs compound simultaneously with PDGF-BB (1 ng/ml)", "result": "678 +/- 68 cpm"}, {"measurement": "[3H] Thymidine Incorporation (cpm)", "setting": "[1]; T = -24 hrs compound, washed out, T = 0 hrs PDGF-BB (1 ng/ml)", "result": "5735 +/- 474 cpm"}, {"measurement": "[3H] Thymidine Incorporation (cpm)", "setting": "[1]; T = -24 hrs compound, washed out, T = 0 hrs acetic acid (no PDGF-BB)", "result": "237 +/- 36 cpm"}, {"measurement": "pIC50", "setting": "[2]", "result": "< 4.00"}, {"measurement": "3H Thymidine (CPM Incorporated), (+) 0.5 U/ml Heparin", "setting": "[3]; 6.2 μM with 1 ng/ml PDGF-BB and 0.5 U/ml heparin", "result": 1007, "unit": "CPM"}, {"measurement": "3H Thymidine (CPM Incorporated), (-) Heparin", "setting": "[3]; 6.2 μM with 1 ng/ml PDGF-BB", "result": 1378, "unit": "CPM"}, {"measurement": "3H Thymidine (CPM Incorporated), (+) 0.5 U/ml Heparin", "setting": "[3]; 12.5 μM with 1 ng/ml PDGF-BB and 0.5 U/ml heparin", "result": 586, "unit": "CPM"}, {"measurement": "3H Thymidine (CPM Incorporated), (-) Heparin", "setting": "[3]; 12.5 μM with 1 ng/ml PDGF-BB", "result": 870, "unit": "CPM"}, {"measurement": "3H Thymidine (CPM Incorporated), (+) 0.5 U/ml Heparin", "setting": "[3]; 25 μM with 1 ng/ml PDGF-BB and 0.5 U/ml heparin", "result": 220, "unit": "CPM"}, {"measurement": "3H Thymidine (CPM Incorporated), (-) Heparin", "setting": "[3]; 25 μM with 1 ng/ml PDGF-BB", "result": 334, "unit": "CPM"}, {"measurement": "3H Thymidine (CPM Incorporated), (+) 0.5 U/ml Heparin", "setting": "[3]; 50 μM with 1 ng/ml PDGF-BB and 0.5 U/ml heparin", "result": 211, "unit": "CPM"}, {"measurement": "3H Thymidine (CPM Incorporated), (-) Heparin", "setting": "[3]; 50 μM with 1 ng/ml PDGF-BB", "result": 309, "unit": "CPM"}, {"measurement": "Effect of adding heparin to the compound on [3H] thymidine incorporation (in words)", "setting": "[3]; 0.5 U/ml unfractionated heparin, 1 ng/ml PDGF-BB", "result": "further inhibition"}, {"measurement": "pIC50", "setting": "[3]; Papio anubis, 20 h, read-out: ED50 for the inhibition of PDGF-BB mitogenic activity", "result": "~4.90"}]}
